Patent US4029688A, “Carbamic pesticidal compositions” (priority 1974, dated 1977)
In brackets after ≈: the same amount, converted by molar mass.

Tests used:
[1] = test system: two-spotted mite (Tetranychus urticae Koch); test: Mite Foliage Spray Test; format: in vivo; conditions: Tetranychus urticae, foliar; Table II, side by side comparison; read-out: Mites Spray LD50
Protocol: (§1) Suspensions of the test compounds were prepared by dissolving one gram of compound in 50 milliliters of acetone in which had been dissolved 0.1 gram (10 percent of the weight of compound) of an alkylphenoxy polyethoxyethanol surfactant, as an emulsifying or dispersing agent. The resulting solution was mixed into 150 milliliters of water to give roughly 200 milliliters of a suspension containing the compound in finely divided form. The thus-prepared stock suspension contained 0.5 percent by weight of compound. The test concentrations in parts per million by weight employed in the tests described hereinbelow were obtained by appropriate dilutions of the stock suspension with water. The test procedures were as follows:
Adults and numphal stages of the two-spotted mite (Tetranychus urticae Koch), reared on Tendergreen bean plants at 80±5 percent relative humidity, were the test organisms. Infested leaves from a stock culture were placed on the primary leaves of two bean plants six to eight inches in height, growing in a 21/2 inch clay pot. 150 -200 Mites, a sufficient number for testing, transferred from the excised leaves to the fresh plants in a period of twenty-four hours. Following the twenty-four hour transfer period, the excised leaves were removed from the infested plants. The test compounds were formulated by diluting the stock suspension with water to give a suspension containing 500 parts of test compound per million parts of final formulation. The potted plants (one pot per compound) were placed on a revolving turntable and sprayed with 100-110 milliliters of test compound formulation by use of a DeVilbiss spray gun set at 40 psig. air pressure. This application, which lasted 25 seconds, was sufficient to wet the plants to run-off. As a control, 100-110 milliliters of a water solution containing acetone and emulsifier in the same concentrations as the test compound formulation, but containing no test compound, were also sprayed on infested plants. The sprayed plants were held at 80±5 percent relative humidity for six days, after which a mortality count of motile forms was made. Microscopic examination for motile forms was made on the leaves of the test plants. Any individual which was capable of locomotion upon prodding was considered living.
(§2) In the tests described above, the pesticidal activity of the compounds against aphid, mite, Southern Armyworm, Bean Beetle, house fly and nematode was rated as follows:
(§3) Comparison tests were conducted to assess the biological and chemical properties of certain representative species of the claimed invention in relation to their corresponding N-methyl carbamate compositions. The test procedures described above were employed in these experiments in order to determine the LD50 (number of parts per million of active ingredients required to achieve fifty percent mortality of the insects tested) for each of the compositions tested. In the case of the aphid and mite tests a side by side comparison was made of the N-methyl carbamate composition versus the corresponding perhalomethylsulfenyl derivative.

[2] = test system: bean aphid (Aphis fabae Scop.); test: Bean Aphid Foliage Spray Test; format: in vivo; conditions: Aphis fabae, foliar; Table II, side by side comparison; read-out: Aphids LD50
Protocol: as §1
Adults and nymphal stages of the bean aphid (Aphis fabae Scop.) reared on potted dwarf nasturtium plants at 65°-70° F. and 50-70 percent relative humidity, constituted the test insects. For testing purposes, the number of aphids per pot was standardized to 100-150 by trimming plants containing excess aphids.
The test compounds were formulated by diluting the stock suspension with water to give a suspension containing 500 parts of test compound per million parts of final formulation.
The potted plants (one pot per compound tested) infested with 100-150 aphids, were placed on a revolving turntable and sprayed with 100-110 milliliters of test compound formulation by use of a DeVilbiss spray gun set at 40 psig. air pressure. This application, which lasted 25 seconds, was sufficient to wet the plants to run-off. As a control, 100-110 milliliters of a water-acetone-emulsifier solution containing no test compound were also sprayed on infested plants. After spraying, the pots were placed on their sides on a sheet of white standard mimeograph paper which had been previously ruled to facilitate counting. Temperature and humidity in the test room during the 24 hour holding period were 65°-70° F. and 50-70 percent, respectively. Aphids which fell onto the paper and were unable to remain standing after being uprighted were considered dead. Aphids remaining on the plants were observed closely for movement and those which were unable to move the length of the body upon stimulation by prodding were considered dead. Percent mortality was recorded for various concentration levels.
as §2, §3

Chemical stability = format: physicochemical; conditions: Table II
[3] = test system: southern armyworm (Prodenia eridania, (Cram.)); test: Southern Armyworm Leaf Spray Test; format: in vivo; conditions: Spodoptera eridania; Table II; read-out: Armyworm LD50
Protocol: as §1
Larvae of the southern armyworm (Prodenia eridania, (Cram.)), reared on Tendergreen bean plants at a temperature of 80°±5° F. and a relative humidity of 50±5 percent, constituted the test insects.
The test compounds were formulated by diluting the stock suspension with water to give a suspension containing 500 parts of test compound per million parts of final formulation. Potted Tendergreen bean plants of standard height and age were placed on a revolving turntable and sprayed with 100-110 milliliters of test compound formulation by use of a DeVilbiss spray gun set at 10 psig air pressure. This application, which lasted 25 seconds, was sufficient to wet plants to run-off. As a control, 100-110 milliliters of a water-acetone-emulsifier solution containing no test compound were also sprayed on infested plants. When dry, the paired leaves were separated and each one was placed in a 9 centimeter Petri dish lined with moistened filter paper. Five randomly selected larvae were introduced into each dish and the dishes were closed. The closed dishes were labeled and held at 80-85° F. for three days. Although the larvae could easily consume the whole leaf within twenty-four hours, no more food was added. Larvae which were unable to move the length of the body, even upon stimulation by prodding, were considered dead. Percent mortality was recorded for various concentration levels.
as §2, §3

[4] = Peroral toxicity to mammals (rat); conditions: in vivo, po, Table II
Protocol: Certain of these compositions were also evaluated to determine their peroral toxicity to mammals. The animal selected for this experiment was the rat. The test results obtained are expressed in terms of the number of milligrams of composition per kilogram of weight of the animal required to achieve a mortality rate of 50 percent (LD50).

[5] = test system: Mexican bean beetle (Epilachna varivestis, Muls.); test: Mexican Bean Beetle Leaf Spray Test; format: in vivo; conditions: Epilachna varivestis; Table II; read-out: Beetle LD50
Protocol: as §1
Fourth instar larvae of the Mexican bean beetle (Epilachna varivestis, Muls.), reared on Tendergreen bean plants at a temperature of 80°±5° F. and 50±5 percent relative humidity, were the test insects.
The test compounds were formulated by diluting the stock suspension with water to give a suspension containing 500 parts of test compound per million parts of final formulation. Potted Tendergreen bean plants of standard height and age were placed on a revolving turntable and sprayed with 100-110 milliliters of test compound formulation by use of a DeVilbiss spray gun set at 10 psig air pressure. This application, which lasted 25 seconds, was sufficient to wet plants to run-off. As a control, 100-110 milliliters of a water-acetone-emulsifier solution containing no test compound were also sprayed on infested plants. When dry, the paired leaves were separated and each was placed in a 9 centimeter Petri dish lined with moistened filter paper. Five randomly selected larvae were introduced into each dish, and the dishes were closed. The closed dishes were labeled and held at a temperature of 80°±5° F. for three days. Although the larvae could easily consume the leaf within 24 to 48 hours, no more food was added. Larvae which were unable to move the length of the body, even upon stimulation, were considered dead.
as §2, §3

[6] = test system: house flies (Musca domestica, L.); test: Fly Bait Test; format: in vivo; conditions: Musca domestica; Table II; read-out: Housefly LD50
Protocol: as §1
Four to six day old adult house flies (Musca domestica, L.), reared according to the specifications of the Chemical Specialties Manufacturing Association (Blue Book, McNair-Dorland Co., N. Y. 1954; pages 243-244, 261) under controlled conditions of 80°±5° F. and 50±5 percent relative humidity, were the test insects. The flies were immobilized by anesthetizing with carbon dioxide and twenty-five immobilized individuals, males and females, were transferred to a cage consisting of a standard food strainer about five inches in diameter which was inverted over a wrapping-paper-covered surface. The test compounds were formulated by diluting the stock suspension with a 10 percent (by weight) sugar solution to give a suspension containing 500 parts of test compound per million parts of final formulation, by weight. Ten milliliters of the test formulation were added to a souffle cup containing a one-inch square of an absorbent cotton pad. This bait cup was introduced and centered on the blotting paper under the food strainer prior to admitting the anesthetized flies. The caged flies were allowed to feed on the bait for twenty-four hours, at a temperature of 80°±5° F. and the relative humidity of 50±5 percent.
as §2, §3

Compound | LC50 [1] [µg/mL] | LC50 [2] [µg/mL] | Stability (Chemical stability) | LC50 [3] [µg/mL] | LD50 [4] [mg/kg] | LC50 [5] [µg/mL] | LC50 [6] [µg/mL]
CNC(=O)ON=C(C)SCCC#N [drawing 23 R=H, reference compound] | 8 (≈ 39.8 µM) | 8 (≈ 39.8 µM) | stable | 5 (≈ 24.8 µM) | 7.7 | 25 (≈ 124 µM) | 2 (≈ 9.94 µM)
CNC(=O)ON=CC(C)(C)[N+](=O)[O-] [drawing 22 R=H, X=NO2, reference compound] | 32 (≈ 169 µM) | 6 (≈ 31.7 µM) | unstable | 55 (≈ 291 µM) | 4 | 80 (≈ 423 µM) | 3 (≈ 15.9 µM)
CNC(=O)ON=CC(C)(C)C#N [drawing 22 R=H, X=CN, reference compound] | 40 (≈ 236 µM) | 12 (≈ 70.9 µM) | unstable | 55 (≈ 325 µM) | 9.5 | 65 (≈ 384 µM) | 3 (≈ 17.7 µM)
CN(SC(F)(F)F)C(=O)ON=CC(C)(C)C#N [drawing 22 R=SCF3, X=CN, 2-Methyl-2-cyanopropionaldehyde O-(N-methyl-N-trifluoromethanesulfenylcarbamoyl)oxime] | 90 (≈ 334 µM) | 38 (≈ 141 µM) | stable | 300 (≈ 1110 µM) |  | 40 (≈ 149 µM) | 14 (≈ 52 µM)
